# Reference: patent US4472304A, “(Amido)N-substituted bleomycins, salts thereof and process for preparation thereof” (Nippon Kayaku Kabushiki Kaisha, priority 1981, dated 1984)
# What was measured:
# [1] = molecular target: T1, bleomycin-inactivating enzyme (Rattus norvegicus, UniProt P70645); test: in vitro; conditions: liver extract
# T1 sequence (P70645 1-454): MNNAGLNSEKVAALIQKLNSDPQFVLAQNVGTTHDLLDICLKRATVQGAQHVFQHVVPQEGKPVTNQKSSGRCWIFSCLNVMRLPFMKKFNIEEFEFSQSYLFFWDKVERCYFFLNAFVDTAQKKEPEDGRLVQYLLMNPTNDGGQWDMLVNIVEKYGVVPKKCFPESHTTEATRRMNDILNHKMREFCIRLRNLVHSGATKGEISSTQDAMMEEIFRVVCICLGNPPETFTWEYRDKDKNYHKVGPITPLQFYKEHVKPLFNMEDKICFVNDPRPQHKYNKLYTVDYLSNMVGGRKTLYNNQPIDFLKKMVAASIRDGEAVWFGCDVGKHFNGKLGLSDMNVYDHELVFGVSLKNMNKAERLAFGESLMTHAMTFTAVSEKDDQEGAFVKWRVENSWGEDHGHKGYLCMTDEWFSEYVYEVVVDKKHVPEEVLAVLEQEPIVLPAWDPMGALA
# [2] = test system: HeLa S3 cells; test: Growth inhibitory activity against cultured HeLa S3 cells; assay type: cell-based; conditions: Homo sapiens, HeLa S3, 72 h; Cu-free; 3 days; read-out: 50% Growth inhibitory concentration of Cu-free compd. against cultured HeLaS3 cells (ID50)
# Procedure: 3. GROWTH INHIBITORY ACTIVITY AGAINST CULTURED HELA S3 CELLS
# HeLa S3 cells were inoculated into a medium (MEM with 10% bovine serum) placed in a plastic petri dish. Two days thereafter, a bleomycin was added to the dish. After 3 days of breeding, the number of cells were counted. The percentage growth inhibition was calculated using the following equation:
# Percentage inhibition (%)=100×(B-A)/(B-C) where A is the final number of cells after 3 days from the addition of test sample, B is the final number of cells in the control without addition of the test smaple, and C is the number of cells at the time of addition of the test sample.
# [3] = test system: Bacillus subtilis; test: Antimicrobial activity against Bacillus subtilis (agar plate-cylinder); assay type: cell-based; conditions: standard bleomycin A2 (copper-free) assumed 1,000 mcg potency/mg
# Procedure: (§1) 2. ANT[…] MYC[…] ATCC 607 AND BACILLUS SUBTILIS
# (§2) The antimicrobial activity was tested against the captioned test organisms by the method of agar plate-cylinder. The activity was recorded on the assumption that the activity of standard sample of bleomycin A2 (copper-free form) is 1,000 mcg poteney/mg.
# [4] = test system: Mycobacterium smegmatis ATCC 607; test: Antimicrobial activity against Mycobacterium smegmatis ATCC 607 (agar plate-cylinder); assay type: cell-based; conditions: standard bleomycin A2 (copper-free) assumed 1,000 mcg potency/mg
# Procedure: as §1, §2
# [5] = CDF1/SLC male mice, s.c. once a day for 10 days, Behrens-Karber, daily dose
# [6] = test system: pulmonary fibrosis; test: Pulmonary toxicity (pulmonary fibrosis) in mice; conditions: for Incidence: Number of mice with pulmonary fibrosis (%) / Incidence: Number of mice with pulmonary fibrosis / Grade: Total score of pulmonary fibrosis/total number of samples / Grade: Total score of pulmonary fibrosis/total number of samples (%): ICR mice, 5 mg/kg i.p. once a day for 10 days; for Incidence: Number of mice with pulmonary fibrosis (%) / Incidence: Number of mice with pulmonary fibrosis: 5 weeks observation; for Incidence: Number of mice with pulmonary fibrosis: mice with fibrosis/total; for Grade: Total score of pulmonary fibrosis/total number of samples / Grade: Total score of pulmonary fibrosis/total number of samples (%): points 0, 1, 2, 4, 6; for Ratio (by comparison with "Bleomycin Complex"): versus Bleomycin Complex
metabolised at 40 min [1] [%],IC50 [2] [µg/mL],SMILES,Antimicrobial potency of Cu-free compound against Bacillus subtilis [3] [mcg potency/mg],Antimicrobial potency of Cu-free compound against Mycobacterium smegmatis ATCC 607 [4] [mcg potency/mg],LD50 during administration period of 10 consecutive days [5] [mg/kg/day],Incidence: Number of mice with pulmonary fibrosis (%) [6] [%],Incidence: Number of mice with pulmonary fibrosis [6],Grade: Total score of pulmonary fibrosis/total number of samples [6],Grade: Total score of pulmonary fibrosis/total number of samples (%) [6] [%],"Ratio (by comparison with ""Bleomycin Complex"") [6]"
5 to 14,1.2,"CNC(=O)C(N)CNC(CC(N)=O)c1nc(N)c(C)c(C(=O)NC(C(=O)NC(C)C(O)C(C)C(=O)NC(C(=O)NCCc2nc(-c3nc(C(=O)NCCc4c[nH]cn4)cs3)cs2)C(C)O)C(OC2OC(CO)C(O)C(O)C2OC2OC(CO)C(O)C(OC(N)=O)C2O)c2cnc[nH]2)n1 (stereo not shown) [Compound 1, 2-(4'-Imidazolyl)ethylamino-(amido)N--[methyl]-BLM]",654,1447,,,,,,
15 to 24,0.98,"CCNC(=O)C(N)CNC(CC(N)=O)c1nc(N)c(C)c(C(=O)NC(C(=O)NC(C)C(O)C(C)C(=O)NC(C(=O)NCCc2nc(-c3nc(C(=O)NCCc4c[nH]cn4)cs3)cs2)C(C)O)C(OC2OC(CO)C(O)C(O)C2OC2OC(CO)C(O)C(OC(N)=O)C2O)c2cnc[nH]2)n1 (stereo not shown) [Compound 2, 2-(4'-Imidazolyl)ethylamino-(amido)N--[ethyl]-BLM]",767,1895,,,,,,
,,"Cc1c(N)nc(C(CC(N)=O)NCC(N)C(=O)NCCCNC(C)c2ccccc2)nc1C(=O)NC(C(=O)NC(C)C(O)C(C)C(=O)NC(C(=O)NCCc1nc(-c2nc(C(=O)NCCCN(C)CCCN(Cc3ccc(OCc4ccccc4)c(OCc4ccccc4)c3)Cc3ccc(OCc4ccccc4)c(OCc4ccccc4)c3)cs2)cs1)C(C)O)C(OC1OC(CO)C(O)C(O)C1OC1OC(CO)C(O)C(OC(N)=O)C1O)c1cnc[nH]1 [Compound 64, 3-{N--methyl-N--[3-bis(m,p-dibenzyloxybenzyl)aminopropyl]amino}-propylamino-(amido)N--[3-((S)-1'-phenylethyl)aminopropyl]-BLM]",23,115,> 81.4,0,0/9,0/27,0,0
,,"CCCCCCCCNC(=O)C(N)CNC(CC(N)=O)c1nc(N)c(C)c(C(=O)NC(C(=O)NC(C)C(O)C(C)C(=O)NC(C(=O)NCCc2nc(-c3nc(C(=O)NCCCN(C)CCCN(Cc4ccc(OCc5ccccc5)c(OCc5ccccc5)c4)Cc4ccc(OCc5ccccc5)c(OCc5ccccc5)c4)cs3)cs2)C(C)O)C(OC2OC(CO)C(O)C(O)C2OC2OC(CO)C(O)C(OC(N)=O)C2O)c2cnc[nH]2)n1 (stereo not shown) [Compound 65, 3-{N--methyl-N--[3-bis(m,p-dibenzyloxybenzyl)aminopropyl]amino}-propylamino-(amido)N--[n-octyl]-BLM]",13,153,> 75.7,0,0/9,0/27,0,0

SMILES,metabolised at 40 min [1] [%],IC50 [2] [µg/mL],Antimicrobial potency of Cu-free compound against Bacillus subtilis [3] [mcg potency/mg],Antimicrobial potency of Cu-free compound against Mycobacterium smegmatis ATCC 607 [4] [mcg potency/mg],LD50 during administration period of 10 consecutive days [5] [mg/kg/day],Incidence: Number of mice with pulmonary fibrosis (%) [6] [%],Incidence: Number of mice with pulmonary fibrosis [6],Grade: Total score of pulmonary fibrosis/total number of samples [6],Grade: Total score of pulmonary fibrosis/total number of samples (%) [6] [%],"Ratio (by comparison with ""Bleomycin Complex"") [6]"
"Cc1c(N)nc(C(CC(N)=O)NCC(N)C(N)=O)nc1C(=O)NC(C(=O)NC(C)C(O)C(C)C(=O)NC(C(=O)NCCc1nc(-c2nc(C(=O)NCCCCNC(=N)N)cs2)cs1)C(C)O)C(OC1OC(CO)C(O)C(O)C1OC1OC(CO)C(O)C(OC(N)=O)C1O)c1cnc[nH]1 (stereo not shown) [bleomycin B2, reference compound]",50,,,,,,,,,
